Counter-ions that a name gives are not always drawn. Numbered stars: 1 amine (or outer) side, 2 acyl side, 3 side chain; on linkers, the order of the positions; unused ones are H or OH. Square brackets hold non-standard residues; d marks the D form. Ends that are not written are not given here. Peptide text beside a SMILES is read from it. MetSta(3S,4S) = CSCC[C@H](N[*:1])[C@@H](O)CC(=O)[*:2]; MetSta = statine analogue named MetSta in the name; Sta = CC(C)C[C@H](N)[C@@H](O)CC(=O)O; PEG4 = NCCOCCOCCOCCOCCC(=O)O
B1: Tyr-Pro-Tyr-Phe-Ile-Pro-DLys-Gly-DLys-Gly-Glu-Val-Asn-Sta-Val-Ala-Glu-DPro-NH2 × 3TFA (peptide)
peptide: YPYFIP[dK]G[dK]GEVN[Sta]VAE[dP]-NH2
modifications: also: TFA salt (3 TFA)
B2: Tyr-Pro-Lys-Phe-Ile-Pro-Leu-Gly-DLys-Gly-Glu-Val-Asn-Sta-Val-Ala-Glu-DPro-NH2 × 3TFA (peptide)
peptide: YPKFIPLG[dK]GEVN[Sta]VAE[dP]-NH2
modifications: also: TFA salt (3 TFA)
B3: Tyr-Pro-Tyr-Phe-Ile-Pro-Leu-PEG(4)-Glu-Val-Asn-MetSta-Val-Ala-Glu-DPhe-NH2 × TFA (peptide)
peptide: YPYFIPL[PEG4]EVN[MetSta(3S,4S)]VAE[dF]-NH2
modifications: also: TFA salt
B4: Tyr-Pro-Tyr-Phe-Ile-Pro-Leu-PEG(4)-Glu-Val-Asn-MetSta-Val-Ala-Glu-Pro-NH2 × TFA (peptide)
peptide: YPYFIPL[PEG4]EVN[MetSta(3S,4S)]VAEP-NH2
modifications: also: TFA salt
B5: Tyr-Pro-Tyr-Phe-Ile-Pro-Leu-Gly-Gly-Gly-Glu-Val-Asn-MetSta-Val-Ala-Glu-Pro-NH2 × TFA (peptide)
peptide: YPYFIPLGGGEVN[MetSta]VAEP-NH2
modifications: also: TFA salt

Target: BACE1 (Asp2, β-secretase, Memapsin-2) in HEK293 cells stably expressing human APP695 (UniProt P56817 46-501, limits assumed)
Test: cell-based or functional assay
Details: not given

Sequence of BACE1 (Asp2, β-secretase, Memapsin-2) in HEK293 cells stably expressing human APP695 (P56817 46-501 limits assumed): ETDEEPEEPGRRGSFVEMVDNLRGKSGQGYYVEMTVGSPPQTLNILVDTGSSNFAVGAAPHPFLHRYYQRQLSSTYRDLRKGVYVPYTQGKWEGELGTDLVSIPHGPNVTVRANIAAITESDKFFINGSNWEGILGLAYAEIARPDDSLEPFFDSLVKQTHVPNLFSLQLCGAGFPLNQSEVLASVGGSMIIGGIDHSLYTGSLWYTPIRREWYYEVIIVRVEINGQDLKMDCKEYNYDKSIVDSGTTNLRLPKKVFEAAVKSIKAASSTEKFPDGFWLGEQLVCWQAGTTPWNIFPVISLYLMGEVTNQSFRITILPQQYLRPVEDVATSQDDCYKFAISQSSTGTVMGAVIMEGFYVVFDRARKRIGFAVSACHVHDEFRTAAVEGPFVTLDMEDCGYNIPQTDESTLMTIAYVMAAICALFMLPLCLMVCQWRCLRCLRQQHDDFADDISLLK

| Molecule | IC 50, cellular Aβ-lowering assay (Aβ40 in supernatant of HEK293 cells expressing human APP695) |
| --- | --- |
| B1 | 0.019 µM |
| B2 | 0.28 µM |
| B3 | 0.43 µM |
| B4 | 0.017 µM |
| B5 | 1.34 µM |

Target: T1, BACE1 (Homo sapiens, UniProt P56817)
T1 construct: Human HEK293 cells which are stably transfected with a vector expressing a cDNA of the human APP wt gene (APP695); endogenous in cells; host or cells: HEK293 (human), stably transfected with human APP695 wt cDNA
Test: Cellular Aβ-lowering assay (Aβ40 ELISA of culture supernatant)
Type: cell-based
Details: active site motifs alone; HEK293 cells stably transfected with human APP wt (APP695); Aβ40 in supernatant; read-out: IC 50
Procedure: The compounds were investigated in accordance with the test given hereinafter. Cellular Aβ-Lowering Assay: Human HEK293 cells which are stably transfected with a vector expressing a cDNA of the human APP wt gene (APP695) were used to assess the potency of the compounds in a cellular assay. The cells were seeded in 96-well microtiter plates in cell culture medium (Iscove, plus 10% (v/v) fetal bovine serum, glutamine, penicillin/streptomycin) to about 80% confluence and the compounds were added at a 10× concentration in 1/10 volume of medium without FCS containing 8% DMSO (final concentration of DMSO was kept at 0.8% v/v). After 18-20 hrs incubation at 37° C. and 5% CO2 in a humidified incubator the culture supernatant was harvested for the determination of Aβ40 concentrations. 96 well ELISA plates (e.g., Nunc MaxiSorb) were coated with monoclonal antibody which specifically recognize the C-terminal end of Aβ40 (Brockhaus et al., NeuroReport 9, 1481-1486; 1998). After blocking of non-specific binding sites with e.g. 1% BSA and washing, the culture supernatants were added in suitable dilutions together with a horseradish peroxidase-coupled Aβ detection antibody (e.g., antibody 4G8, Senetek, Maryland Heights, Mo.) and incubated for 5 to 7 hrs. Subsequently the wells of the microtiter plate were washed extensively with Tris-buffered saline containing 0.05% Tween 20 and the assay was developed with tetramethylbenzidine/H2O2 in citric acid buffer. After stopping the reaction with one volume 1 N H2SO4 the reaction was measured in an ELISA reader at 450 nm wavelength. The concentrations of Aβ in the culture supernatants were calculated from a standard curve obtained with known amounts of pure Aβ peptide.

T1 sequence (P56817 46-501): as the sequence (P56817 46-501 limits assumed) above

| Molecule | IC50 |
| --- | --- |
| CSCC[C@H](NC(=O)[C@H](CC(N)=O)NC(=O)[C@@H](NC(=O)[C@@H](N)CCC(=O)O)C(C)C)[C@@H](O)CC(=O)N[C@H](C(=O)N[C@@H](C)C(=O)N[C@@H](CCC(=O)O)C(=O)N[C@H](Cc1ccccc1)C(N)=O)C(C)C [Example A2, Glu-Val-Asn-MetSta-Val-Ala-Glu-DPhe-NH2 × TFA, reference compound] (H-EVN[MetSta(3S,4S)]VAE[dF]-NH2) | > 40 µM |

Same assay, conditions: dual-site BACE1 inhibitors; HEK293 cells stably transfected with human APP wt (APP695); 18-20 hrs incubation; Aβ40 in supernatant; read-out: IC 50

| Molecule | IC50 |
| --- | --- |
| CC[C@H](C)[C@H](NC(=O)[C@H](Cc1ccccc1)NC(=O)[C@H](Cc1ccc(O)cc1)NC(=O)[C@@H]1CCCN1C(=O)[C@@H](N)Cc1ccc(O)cc1)C(=O)N[C@H](CCCCN)C(=O)N[C@@H](CC(C)C)C(=O)NCC(=O)N[C@H](CCCCN)C(=O)NCC(=O)N[C@@H](CCC(=O)O)C(=O)N[C@H](C(=O)N[C@@H](CC(N)=O)C(=O)N[C@@H](CC(C)C)[C@@H](O)CC(=O)N[C@H](C(=O)N[C@@H](C)C(=O)N[C@@H](CCC(=O)O)C(=O)N1CCC[C@@H]1C(N)=O)C(C)C)C(C)C [Example 12, Tyr-Pro-Tyr-Phe-Ile-DLys-Leu-Gly-DLys-Gly-Glu-Val-Asn-Sta-Val-Ala-Glu-DPro-NH2 × 3TFA] (H-YPYFI[dK]LG[dK]GEVN[Sta]VAE[dP]-NH2) | > 40 µM |
| CC[C@H](C)[C@H](NC(=O)[C@H](Cc1ccccc1)NC(=O)[C@H](Cc1ccc(O)cc1)NC(=O)[C@@H]1CCCN1C(=O)[C@@H](N)Cc1ccc(O)cc1)C(=O)N1CCC[C@H]1C(=O)N[C@H](CCCCN)C(=O)NCC(=O)N[C@H](CCCCN)C(=O)NCC(=O)N[C@@H](CCC(=O)O)C(=O)N[C@H](C(=O)N[C@@H](CC(N)=O)C(=O)N[C@@H](CCSC)[C@@H](O)CC(=O)N[C@H](C(=O)N[C@@H](C)C(=O)N[C@@H](CCC(=O)O)C(=O)N1CCC[C@H]1C(N)=O)C(C)C)C(C)C [Example 18, Tyr-Pro-Tyr-Phe-Ile-Pro-DLys-Gly-DLys-Gly-Glu-Val-Asn-MetSta-Val-Ala-Glu-Pro-NH2 × 3TFA] | 0.015 µM |
| CC[C@H](C)[C@H](NC(=O)[C@H](Cc1ccccc1)NC(=O)[C@H](CCCNC(=N)N)NC(=O)[C@H](C)NC(=O)CN)C(=O)N1CCC[C@H]1C(=O)N[C@@H](C)C(=O)NCC(=O)N[C@H](CCCCN)C(=O)NCC(=O)N[C@@H](CCC(=O)O)C(=O)N[C@H](C(=O)N[C@@H](CC(N)=O)C(=O)N[C@@H](CC(C)C)[C@@H](O)CC(=O)N[C@H](C(=O)N[C@@H](C)C(=O)N[C@@H](CCC(=O)O)C(=O)N1CCC[C@@H]1C(N)=O)C(C)C)C(C)C [Example 16, Gly-Ala-Arg-Phe-Ile-Pro-Ala-Gly-DLys-Gly-Glu-Val-Asn-Sta-Val-Ala-Glu-DPro-NH2 × 3TFA] (H-GARFIPAG[dK]GEVN[Sta]VAE[dP]-NH2; N-terminus assumed) | 0.42 µM |
| CC[C@H](C)[C@H](NC(=O)[C@H](Cc1ccccc1)NC(=O)[C@H](Cc1ccc(O)cc1)NC(=O)[C@@H]1CCCN1C(=O)[C@@H](N)Cc1ccc(O)cc1)C(=O)N1CCC[C@H]1C(=O)N[C@@H](CC(C)C)C(=O)NCC(=O)NCC(=O)NCC(=O)N[C@@H](CCC(=O)O)C(=O)N[C@H](C(=O)N[C@@H](CC(N)=O)C(=O)N[C@@H](CC(C)C)[C@@H](O)CC(=O)N[C@H](C(=O)N[C@@H](C)C(=O)N[C@@H](CCC(=O)O)C(=O)N1CCC[C@@H]1C(N)=O)C(C)C)C(C)C [Example 2, Tyr-Pro-Tyr-Phe-Ile-Pro-Leu-Gly-Gly-Gly-Glu-Val-Asn-Sta-Val-Ala-Glu-DPro-NH2 × TFA] | 0.42 µM |
| CC(C)C[C@H](NC(=O)[C@@H]1CCCN1C(=O)[C@@H](CCCCN)NC(=O)[C@H](Cc1ccccc1)NC(=O)[C@H](Cc1ccc(O)cc1)NC(=O)[C@@H]1CCCN1C(=O)[C@@H](N)Cc1ccc(O)cc1)C(=O)NCC(=O)N[C@H](CCCCN)C(=O)NCC(=O)N[C@@H](CCC(=O)O)C(=O)N[C@H](C(=O)N[C@@H](CC(N)=O)C(=O)N[C@@H](CC(C)C)[C@@H](O)CC(=O)N[C@H](C(=O)N[C@@H](C)C(=O)N[C@@H](CCC(=O)O)C(=O)N1CCC[C@@H]1C(N)=O)C(C)C)C(C)C [Example 13, Tyr-Pro-Tyr-Phe-DLys-Pro-Leu-Gly-DLys-Gly-Glu-Val-Asn-Sta-Val-Ala-Glu-DPro-NH2 × 3TFA] (H-YPYF[dK]PLG[dK]GEVN[Sta]VAE[dP]-NH2) | > 40 µM |
| CC[C@H](C)[C@H](NC(=O)[C@H](Cc1ccccc1)NC(=O)[C@H](Cc1ccc(O)cc1)NC(=O)[C@@H](CCCCN)NC(=O)[C@@H](N)Cc1ccc(O)cc1)C(=O)N1CCC[C@H]1C(=O)N[C@@H](CC(C)C)C(=O)NCC(=O)N[C@H](CCCCN)C(=O)NCC(=O)N[C@@H](CCC(=O)O)C(=O)N[C@H](C(=O)N[C@@H](CC(N)=O)C(=O)N[C@@H](CC(C)C)[C@@H](O)CC(=O)N[C@H](C(=O)N[C@@H](C)C(=O)N[C@@H](CCC(=O)O)C(=O)N1CCC[C@@H]1C(N)=O)C(C)C)C(C)C [Example 31, H-Tyr-DLys-Tyr-Phe-Ile-Pro-Leu-Gly-DLys-Gly-Glu-Val-Asn-Sta-Val-Ala-Glu-DPro-NH2] (H-Y[dK]YFIPLG[dK]GEVN[Sta]VAE[dP]-NH2) | > 40 µM |

Same assay, conditions: exosite motifs alone; HEK293 cells stably transfected with human APP wt (APP695); Aβ40 in supernatant; read-out: IC 50

| Molecule | IC50 |
| --- | --- |
| CC[C@H](C)[C@H](NC(=O)[C@H](Cc1ccccc1)NC(=O)[C@H](CCCNC(=N)N)NC(=O)[C@H](C)NC(=O)CNC(=O)[C@@H](NC(=O)[C@H](CO)NC(C)=O)[C@@H](C)O)C(=O)N1CCC[C@H]1C(=O)N[C@@H](C)C(=O)N[C@@H](CC(N)=O)C(N)=O [Example E3, Ac-Ser-Thr-Gly-Ala-Arg-Phe-Ile-Pro-Ala-Asn-NH2] (Ac-STGARFIPAN-NH2) | > 40 µM |
| CC[C@H](C)[C@H](NC(=O)[C@H](Cc1ccccc1)NC(=O)[C@H](CCCCN)NC(=O)[C@@H]1CCCN1C(=O)[C@H](Cc1ccc(O)cc1)NC(=O)[C@H](CC(=O)O)NC(=O)CNC(C)=O)C(=O)N[C@@H](CO)C(=O)N[C@@H](C)C(=O)N[C@@H](CC(N)=O)C(N)=O [Example E4, Ac-Gly-Asp-Tyr-Pro-Lys-Phe-Ile-Ser-Ala-Asn-NH2] (Ac-GDYPKFISAN-NH2) | > 40 µM |
| CC[C@H](C)[C@H](NC(=O)[C@H](Cc1ccccc1)NC(=O)[C@H](CCCCN)NC(=O)[C@@H]1CCCN1C(=O)[C@H](Cc1ccc(O)cc1)NC(=O)[C@H](CO)NC(=O)CNC(C)=O)C(=O)N[C@@H](CC(=O)O)C(=O)N[C@@H](C)C(=O)N[C@@H](CC(N)=O)C(N)=O [Example E6, Ac-Gly-Ser-Tyr-Pro-Lys-Phe-Ile-Asp-Ala-Asn-NH2] (Ac-GSYPKFIDAN-NH2) | > 40 µM |
| CC(=O)N[C@@H](CCC(N)=O)C(=O)N[C@@H](CCC(N)=O)C(=O)N[C@@H](Cc1ccc(O)cc1)C(=O)N1CCC[C@H]1C(=O)N[C@@H](Cc1ccc(O)cc1)C(=O)N[C@@H](Cc1ccccc1)C(=O)N[C@@H](CCCCN)C(=O)N1CCC[C@H]1C(=O)N[C@@H](C)C(=O)N[C@@H](CC(N)=O)C(N)=O [Example E1, Ae-Gln-Gln-Tyr-Pro-Tyr-Phe-Lys-Pro-Ala-Asn-NH2] (Ac-QQYPYFKPAN-NH2) | > 40 µM |
| CC[C@H](C)[C@H](NC(=O)[C@H](Cc1ccccc1)NC(=O)[C@H](CCCCN)NC(=O)[C@@H]1CCCN1C(=O)[C@H](Cc1ccc(O)cc1)NC(=O)[C@H](CC(=O)O)NC(=O)CNC(C)=O)C(=O)N1CCC[C@H]1C(=O)N[C@@H](C)C(=O)N[C@@H](CO)C(N)=O [Example E5, Ac-Gly-Asp-Tyr-Pro-Lys-Phe-Ile-Pro-Ala-Ser-NH2] (Ac-GDYPKFIPAS-NH2) | > 40 µM |
| YQTFKPANGS [Example E2, Ac-Tyr-Gln-Thr-Phe-Lys-Pro-Ala-Asn-Gly-Ser-NH2, exosite motif peptide tested alone] | > 40 µM |

— patent publication US10947272B2, “BACE1 inhibitor peptides” (HOFFMANN-LA ROCHE INC., priority 2015, dated 2021)
